Results published in US9718821B2, “Pyridopyrimidinone inhibitors of kinases” (AbbVie Inc., priority 2012, dated 2017).

Target: T1, GST-tagged-Wee1 kinase (Homo sapiens, UniProt P30291)
T1 construct: purchased Carnabio 05-177
Experiment: Wee1 time-resolved fluorescence equilibrium binding assay (displacement of Oregon Green-labeled ATP-competitive kinase probe)
Details: enzyme binding data; GST-tagged-Wee1 kinase 2 nM, fluorescent probe 300 nM, inhibitor 0.003 to 10 micromolar, 1 hour incubation; read-out: Wee-1 binding (Ki nM)
Procedure: Wee1 kinase was assayed using a time-resolved fluorescence equilibrium binding assay monitoring displacement of a rapidly reversible Oregon Green-labeled ATP-competitive kinase probe (N-(2-(2-(2-(4-(4-(5-chloro-4-(2-(1-hydroxycyclobutyl)thiazol-5-yl)-1H-pyrrolo[2,3-b]pyridin-2-yl)phenyl)piperazin-1-yl)ethoxy)ethoxy)ethyl)-2′,7′-difluoro-3′,6′-dihydroxy-3-oxo-3H-spiro[isobenzofuran-1,9′-xanthene]-5-carboxamide) by competitive Wee1 inhibitors.
Table 1 depicts enzyme binding data (Ki)for exemplary compounds.

T1 sequence (P30291 whole entry): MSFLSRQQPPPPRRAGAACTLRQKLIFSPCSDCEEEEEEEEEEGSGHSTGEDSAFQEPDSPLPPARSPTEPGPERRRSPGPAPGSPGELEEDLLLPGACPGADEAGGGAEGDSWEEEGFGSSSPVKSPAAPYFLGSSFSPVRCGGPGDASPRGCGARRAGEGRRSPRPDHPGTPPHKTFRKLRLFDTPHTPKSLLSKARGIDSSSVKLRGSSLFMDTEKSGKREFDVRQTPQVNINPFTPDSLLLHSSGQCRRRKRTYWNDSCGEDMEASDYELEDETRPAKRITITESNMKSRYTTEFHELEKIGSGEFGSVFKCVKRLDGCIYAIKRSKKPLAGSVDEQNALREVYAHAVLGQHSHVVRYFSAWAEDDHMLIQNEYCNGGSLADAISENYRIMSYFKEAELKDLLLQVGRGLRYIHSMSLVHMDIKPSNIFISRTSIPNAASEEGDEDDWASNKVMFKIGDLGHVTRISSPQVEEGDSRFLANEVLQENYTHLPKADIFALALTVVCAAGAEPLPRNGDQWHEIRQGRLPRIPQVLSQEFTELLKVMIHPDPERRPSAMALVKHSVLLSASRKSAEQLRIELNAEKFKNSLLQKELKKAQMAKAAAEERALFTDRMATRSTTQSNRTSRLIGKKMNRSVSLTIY

Ki [nM] | Compound
0.5 | 6-(2,6-dichlorophenyl)-8-methyl-2-(1,2,3,4-tetrahydroisoquinolin-6-ylamino)pyrido[4,3-d]pyrimidin-5(6H)-one [Example 76]
0.3 | C=Cc1cn(-c2c(Cl)cccc2Cl)c(=O)c2cnc(Nc3ccc4c(c3)CC(N(C)C)C4)nc12 (stereo not drawn) [Example 49, 6-(2,6-dichlorophenyl)-2-{[2-(dimethylamino)-2,3-dihydro-1H-inden-5-yl]amino}-8-ethenylpyrido[4,3-d]pyrimidin-5(6H)-one]
0.5 | C=Cc1cn(-c2c(Cl)cccc2Cl)c(=O)c2cnc(Nc3ccc(N4CCC(N(C)C)CC4)cc3)nc12 [Example 50, 6-(2,6-dichlorophenyl)-2-({4-[4-(dimethylamino)piperidin-1-yl]phenyl}amino)-8-ethenylpyrido[4,3-d]pyrimidin-5(6H)-one]
0.4 | C=Cc1cn(-c2c(Cl)cccc2Cl)c(=O)c2cnc(Nc3ccc4c(c3)CNCC43CC3)nc12 [Example 51, 6-(2,6-dichlorophenyl)-2-(2′,3′-dihydro-1′H-spiro[cyclopropane-1,4′-isoquinolin]-7′-ylamino)-8-ethenylpyrido[4,3-d]pyrimidin-5(6H)-one]
1.8 | C=Cc1cn(-c2c(Cl)cccc2Cl)c(=O)c2cnc(Nc3ccc(N4CC5CNCC5C4)cc3)nc12 (stereo not drawn) [Example 52, 6-(2,6-dichlorophenyl)-8-ethenyl-2-{[4-(hexahydropyrrolo[3,4-c]pyrrol-2(1H)-yl)phenyl]amino}pyrido[4,3-d]pyrimidin-5(6H)-one]
0.3 | CN1Cc2cc(Nc3ncc4c(=O)n(-c5c(Cl)cccc5Cl)cc(CO)c4n3)ccc2C2(CC2)C1 [Example 53, 6-(2,6-dichlorophenyl)-8-(hydroxymethyl)-2-[(2′-methyl-2′,3′-dihydro-1′H-spiro[cyclopropane-1,4′-isoquinolin]-7′-yl)amino]pyrido[4,3-d]pyrimidin-5(6H)-one]
0.4 | CN(C)C1Cc2ccc(Nc3ncc4c(=O)n(-c5c(Cl)cccc5Cl)cc(CO)c4n3)cc2C1 (stereo not drawn) [Example 54, 6-(2,6-dichlorophenyl)-2-{[2-(dimethylamino)-2,3-dihydro-1H-inden-5-yl]amino}-8-(hydroxymethyl)pyrido[4,3-d]pyrimidin-5(6H)-one]
0.6 | CN(C)C1CCN(c2ccc(Nc3ncc4c(=O)n(-c5c(Cl)cccc5Cl)cc(CO)c4n3)cc2)CC1 [Example 55, 6-(2,6-dichlorophenyl)-2-({4-[4-(dimethylamino)piperidin-1-yl]phenyl}amino)-8-(hydroxymethyl)pyrido[4,3-d]pyrimidin-5(6H)-one]
0.5 | C=Cc1cn(-c2c(Cl)cccc2Cl)c(=O)c2cnc(Nc3ccc4c(c3)CNCC4(C)C)nc12 [Example 56, 6-(2,6-dichlorophenyl)-2-[(4,4-dimethyl-1,2,3,4-tetrahydroisoquinolin-7-yl)amino]-8-ethenylpyrido[4,3-d]pyrimidin-5(6H)-one]
0.1 | O=c1c2cnc(Nc3ccc4c(c3)CNCC43CC3)nc2c(CO)cn1-c1c(Cl)cccc1Cl [Example 57, 6-(2,6-dichlorophenyl)-2-(2′,3′-dihydro-1′H-spiro[cyclopropane-1,4′-isoquinolin]-7′-ylamino)-8-(hydroxymethyl)pyrido[4,3-d]pyrimidin-5(6H)-one]
0.1 | CC1(C)CNCc2cc(Nc3ncc4c(=O)n(-c5c(Cl)cccc5Cl)cc(CO)c4n3)ccc21 [Example 58, 6-(2,6-dichlorophenyl)-2-[(4,4-dimethyl-1,2,3,4-tetrahydroisoquinolin-7-yl)amino]-8-(hydroxymethyl)pyrido[4,3-d]pyrimidin-5(6H)-one]
0.1 | C=Cc1cn(-c2c(Cl)cccc2Cl)c(=O)c2cnc(Nc3ccc4c(c3)CCNC4)nc12 [Example 59, 6-(2,6-dichlorophenyl)-8-ethenyl-2-(1,2,3,4-tetrahydroisoquinolin-6-ylamino)pyrido[4,3-d]pyrimidin-5(6H)-one]
0.5 | C=Cc1cn(-c2c(F)cccc2Cl)c(=O)c2cnc(Nc3ccc(N4CCC(N(C)C)CC4)cc3)nc12 [Example 60, 6-(2-chloro-6-fluorophenyl)-2-({4-[4-(dimethylamino)piperidin-1-yl]phenyl}amino)-8-ethenylpyrido[4,3-d]pyrimidin-5(6H)-one]
0.3 | C=Cc1cn(-c2c(F)cccc2Cl)c(=O)c2cnc(Nc3ccc(C4CCN(C)CC4)cc3)nc12 [Example 61, 6-(2-chloro-6-fluorophenyl)-8-ethenyl-2-{[4-(1-methylpiperidin-4-yl)phenyl]amino}pyrido[4,3-d]pyrimidin-5(6H)-one]
0.3 | C=Cc1cn(-c2c(F)cccc2Cl)c(=O)c2cnc(Nc3ccc(N4CCN(C)CC4)cc3)nc12 [Example 62, 6-(2-chloro-6-fluorophenyl)-8-ethenyl-2-{[4-(4-methylpiperazin-1-yl)phenyl]amino}pyrido[4,3-d]pyrimidin-5(6H)-one]
0.9 | C=Cc1cn(-c2c(F)cccc2Cl)c(=O)c2cnc(Nc3ccc4c(c3)CN(C)CC43CC3)nc12 [Example 63, 6-(2-chloro-6-fluorophenyl)-8-ethenyl-2-[(2′-methyl-2′,3′-dihydro-1′H-spiro[cyclopropane-1,4′-isoquinolin]-7′-yl)amino]pyrido[4,3-d]pyrimidin-5(6H)-one]
0.5 | C=Cc1cn(-c2c(F)cccc2Cl)c(=O)c2cnc(Nc3ccc4c(c3)CC(N(C)C)C4)nc12 (stereo not drawn) [Example 64, 6-(2-chloro-6-fluorophenyl)-2-{[2-(dimethylamino)-2,3-dihydro-1H-inden-5-yl]amino}-8-ethenylpyrido[4,3-d]pyrimidin-5(6H)-one]
127 | CNc1ncc2c(=O)n(-c3c(Cl)cccc3Cl)cc(C)c2n1 [Example 65, 6-(2,6-dichlorophenyl)-8-methyl-2-(methylamino)pyrido[4,3-d]pyrimidin-5(6H)-one]
0.9 | Cc1cn(-c2c(F)cccc2Cl)c(=O)c2cnc(Nc3ccc(N4CCN(C)CC4)cc3)nc12 [Example 66, 6-(2-chloro-6-fluorophenyl)-8-methyl-2-{[4-(4-methylpiperazin-1-yl)phenyl]amino}pyrido[4,3-d]pyrimidin-5(6H)-one]
0.8 | Cc1cn(-c2c(F)cccc2Cl)c(=O)c2cnc(Nc3ccc4c(c3)CN(C)CC43CC3)nc12 [Example 67, 6-(2-chloro-6-fluorophenyl)-8-methyl-2-[(2′-methyl-2′,3′-dihydro-1′H-spiro[cyclopropane-1,4′-isoquinolin]-7′-yl)amino]pyrido[4,3-d]pyrimidin-5(6H)-one]
0.9 | Cc1cn(-c2c(F)cccc2Cl)c(=O)c2cnc(Nc3ccc4c(c3)CC(N(C)C)C4)nc12 (stereo not drawn) [Example 68, 6-(2-chloro-6-fluorophenyl)-2-{[2-(dimethylamino)-2,3-dihydro-1H-inden-5-yl]amino}-8-methylpyrido[4,3-d]pyrimidin-5(6H)-one]
2.4 | Cc1cn(-c2c(F)cccc2Cl)c(=O)c2cnc(Nc3ccc(N4CCC(N(C)C)CC4)cc3)nc12 [Example 69, 6-(2-chloro-6-fluorophenyl)-2-({4-[4-(dimethylamino)piperidin-1-yl]phenyl}amino)-8-methylpyrido[4,3-d]pyrimidin-5(6H)-one]
1.6 | Cc1cn(-c2c(F)cccc2Cl)c(=O)c2cnc(Nc3ccc4c(c3)CN(C)CC4(C)C)nc12 [Example 70, 6-(2-chloro-6-fluorophenyl)-8-methyl-2-[(2,4,4-trimethyl-1,2,3,4-tetrahydroisoquinolin-7-yl)amino]pyrido[4,3-d]pyrimidin-5(6H)-one]
1.2 | Cc1cn(-c2c(F)cccc2Cl)c(=O)c2cnc(Nc3ccc(C4CCN(C)CC4)cc3)nc12 [Example 71, 6-(2-chloro-6-fluorophenyl)-8-methyl-2-{[4-(1-methylpiperidin-4-yl)phenyl]amino}pyrido[4,3-d]pyrimidin-5(6H)-one]
5.1 | Cc1cn(-c2c(F)cccc2Cl)c(=O)c2cnc(Nc3ccc4c(c3)CCNC4)nc12 [Example 72, 6-(2-chloro-6-fluorophenyl)-8-methyl-2-(1,2,3,4-tetrahydroisoquinolin-6-ylamino)pyrido[4,3-d]pyrimidin-5(6H)-one]
1.5 | Cc1cn(-c2c(F)cccc2Cl)c(=O)c2cnc(Nc3ccc4c(c3)CNCC4(C)C)nc12 [Example 73, 6-(2-chloro-6-fluorophenyl)-2-[(4,4-dimethyl-1,2,3,4-tetrahydroisoquinolin-7-yl)amino]-8-methylpyrido[4,3-d]pyrimidin-5(6H)-one]
0.6 | Cc1cn(-c2c(F)cccc2Cl)c(=O)c2cnc(Nc3ccc4c(c3)CNCC43CC3)nc12 [Example 74, 6-(2-chloro-6-fluorophenyl)-2-(2′,3′-dihydro-1′H-spiro[cyclopropane-1,4′-isoquinolin]-7′-ylamino)-8-methylpyrido[4,3-d]pyrimidin-5(6H)-one]
0.8 | Cc1cn(-c2c(F)cccc2Cl)c(=O)c2cnc(Nc3ccc4c(c3)CNCC4)nc12 [Example 75, 6-(2-chloro-6-fluorophenyl)-8-methyl-2-(1,2,3,4-tetrahydroisoquinolin-7-ylamino)pyrido[4,3-d]pyrimidin-5(6H)-one]
0.3 | Cc1cn(-c2c(Cl)cccc2Cl)c(=O)c2cnc(Nc3ccc4c(c3)CNCC4(C)C)nc12 [Example 77, 6-(2,6-dichlorophenyl)-2-[(4,4-dimethyl-1,2,3,4-tetrahydroisoquinolin-7-yl)amino]-8-methylpyrido[4,3-d]pyrimidin-5(6H)-one]
0.2 | Cc1cn(-c2c(Cl)cccc2Cl)c(=O)c2cnc(Nc3ccc(C4CCN(C)CC4)cc3)nc12 [Example 78, 6-(2,6-dichlorophenyl)-8-methyl-2-{[4-(1-methylpiperidin-4-yl)phenyl]amino}pyrido[4,3-d]pyrimidin-5(6H)-one]
